# “Also recorded” adds a separate entry of the source.
# Experiments:
# [1] = system: IL-1β-induced PGE2 release; experiment: IL-1β-induced PGE2 release from normal human chondrocytes (competitive EIA); format: cell-based
# SOX9 = SOX9 relative expression in osteoarthritic chondrocytes (qRT-PCR, normalized to GAPDH); format: cell-based, human
# [2] = system: type II collagen (Col2a1); experiment: Col2a1 relative expression in osteoarthritic chondrocytes (qRT-PCR); format: cell-based, human
# SOX9 versus RUNX2 = experiment: Relative expression of SOX9 versus RUNX2 in osteoarthritic chondrocytes; format: cell-based, human
# Aggrecan (ACAN) = experiment: ACAN relative expression in osteoarthritic chondrocytes (qRT-PCR); format: cell-based; conditions: passage 5 human osteoarthritic chondrocytes, 27 days
# From the text: Delta-delta relative gene expression was employed to determine ACAN regulation in the 27-day samples referenced in Examples 15 and 16.
# type I collagen (Col1a1) = experiment: Col1a1 relative expression in osteoarthritic chondrocytes (qRT-PCR); format: cell-based; conditions: passage 5 human osteoarthritic chondrocytes, 27 days
# Protocol: To evaluate the biological ramifications of the SOX9 to RUNX2 regulation mentioned above, delta-delta relative gene expression was assessed against medium controls, with normalization to GAPDH for both Col2a1 and Col1a1 in the samples tested with reference to Example 15. […] Moreover, treatment with 100 mM Lac increased collagen expression (49.88+4.31 and 1.63+0.20 for Col2a1 and Col1a1, respectively; FIGS. 51 and 52).
# Elastin (ELN) = experiment: ELN mRNA in normal human dermal fibroblasts (NHDF), qRT-PCR; format: cell-based; conditions: IL-1β 0.1 ng/ml, 24 hours; 100 mM Lac, 0.1 mM Dxp; n=3
# Protocol: (§1) After 24 hours, total mRNA was isolated and delta-delta Cp relative expression was calculated versus untreated medium controls, normalized to the housekeeping gene, GAPDH. Statistical analysis was then conducted via t-test.
# [3] = system: matrix metalloproteinase 3 (MMP3); experiment: MMP3 mRNA in NHDF, qRT-PCR; format: cell-based, human; conditions: IL-1β 0.1 ng/ml, 24 hours; 100 mM Lac, 0.1 mM Dxp
# Protocol: as §1
# [4] = system: matrix metalloproteinase 12 (MMP12); experiment: MMP12 mRNA in NHDF, qRT-PCR; format: cell-based, human; conditions: IL-1β 0.1 ng/ml, 24 hours; 100 mM Lac, 0.1 mM Dxp
# Protocol: as §1
# RUNX2 = RUNX2 relative expression in osteoarthritic chondrocytes (qRT-PCR)
# Protocol: Examples of the present disclosure were conducted to evaluate the expression of key chondrocyte markers in the presence of test compounds. High passage and low passage chondrocytes were prepared where in both cases, primary human chondrocytes were cultured as confluent monolayers on tissue culture plates. For the high passage chondrocytes, fibroblast-like human osteoarthritic chondrocytes were used. The cells were cultured for an extended period before investigation (passage 13).
# When indicated, the cells were also cultured with TGF-β3 at a final concentration of 10 ng/ml.
# The data is presented as GAPDH normalized relative expression of key markers versus unstimulated controls.
# The culture mediums were replenished weekly by withdrawing about half of the volume and replacing them with warmed mediums supplemented as needed. After 27 days, total RNA was extracted and qRT-PCR was carried out with primer sets for SOX9, RUNX2, and GAPDH.
# [5] = 100 millimolar Lac with 10 ng/mL TGF-B3, 14 days, micromass cultures
# [6] = 100 millimolar Lac, 14 days, monolayer cultures
# [7] = low passage osteoarthritic chondrocytes, 7, 14, 28 days
# [8] = passage 5 human osteoarthritic chondrocytes, 27 days
compound,measurement,setting,value
"CC(O)C(=O)O (centres unmarked) [Lac, lactate]",inhibition of PGE2 release,"[1]; 100 millimolar Lac, 0.5 ng/mL IL-1β, 48 h",complete inhibition
same,"concentration with statistically significant effect, PGE2 release","[1]; IL-1β, 48 h",≥ 10 millimolar
same,inhibition of PGE2 release,"[1]; pre-incubation 24 hours, 24-hour harvest, 25 uM Dec, 28 mM Lac, 10 uM LA, singlet",−139%
same,inhibition of PGE2 release,"[1]; rescue (added after overnight IL-1β activation), 24-hour harvest, 25 uM Dec, 28 mM Lac, 10 uM LA, singlet",64%
same,inhibition of PGE2 release,"[1]; rescue, 96-hour harvest, 25 uM Dec, 28 mM Lac, 10 uM LA, singlet",27%
same,increase in SOX9,SOX9; [5],9 fold
same,increase in relative expression of SOX9,SOX9; [6],8 fold
same,increase in SOX9 transcription,"SOX9; high passage osteoarthritic chondrocytes, TGF-B, 14 days, 100 mm LA, 28 mM Lac",2 fold
same,SOX9 expression,"SOX9; high passage, dedifferentiated osteoarthritic chondrocytes, TGF-β3, 14 days",increased SOX9 transcription; also recorded: increased expression of SOX9
same,SOX9 expression,SOX9; [7],temporal increase in SOX9
same,relative expression of SOX9 versus medium controls,"SOX9; passage 5 human osteoarthritic chondrocytes, 27 days, 50 micromolar Dec, 0.1 micromolar Dxp, 100 millimolar Lac",6.34+2.46 fold
same,increase in Col2a1,[2]; [5],88 fold
same,increase in collagen,"[2]; 100 millimolar Lac, 14 days, micromass pellets",11 fold
same,increase in relative expression of Col2a1,[2]; [6],1600 fold
same,increase in Col2a1 compared to controls,"[2]; high passage osteoarthritic chondrocytes, TGF-B, 14 days, 28 mM Lac",30 fold
same,relative expression of Col2a1,"[2]; low passage osteoarthritic chondrocytes, day 28",elevated Col2a1 relative expression
same,relative expression of Col2a1 versus medium controls,[2]; [8],49.88+4.31 fold
same,ratio of SOX9/RUNX2,SOX9 versus RUNX2; [7],temporally increased
same,expression of SOX9 compared to RUNX2,SOX9 versus RUNX2; [8],25.14+12.71
same,relative expression of ACAN,Aggrecan (ACAN),3.81+0.77 fold
same,relative expression of Col1a1 versus medium controls,type I collagen (Col1a1),1.63+0.20 fold
same,relative expression of ELN,Elastin (ELN),0.86+3
same,relative expression of MMP3,[3],1.5 ± 0.8
same,relative expression of MMP12,[4],2.2 ± 0.8
same,RUNX2 expression,RUNX2; [7],temporal decrease in RUNX2; also recorded: temporally reduced RUNX2 expression
same,relative expression of RUNX2 versus medium controls,RUNX2; [8],−2.51+1.33

# Reference: patent publication US20250295608A1, “PHARMACEUTICAL COMPOSITIONS AND METHODS FOR TREATING OSTEOARTHRITIS” (INSIGNIA PHARMACEUTICALS, LLC, priority 2024, published 2025)
